What all share (assay type): physicochemical
A short description of data set [1]: Ceramide compatibility by differential scanning calorimetry (DSC): melting enthalpy and compatibility ratio. Conditions: for Peak area / Melting enthalpy: DSC; for Compatibility ratio 104+NPO / Compatibility ratio 104+NPS: from total melting enthalpy; for Compatibility ratio 104+NPO / Enthalpy (J/g) NPO / Compatibility ratio 104+NPS / Enthalpy (J/g) NPS: by 104 Ratio; for Enthalpy (J/g) NPO / Enthalpy (J/g) NPS: total melting enthalpy of mixed ceramides; for Enthalpy (J/g) NPO: 104 with NPO; for Melting enthalpy: total melting enthalpy of single unmixed ceramide; for Ratio: measured peak area / calculated theoretical value, PC-104 and NPS; for Enthalpy (J/g) NPS: 104 with NPS. On the procedure:
Ceramide compatibility was evaluated through measurement of differential scanning calorimetry (DSC). It is known that a ceramide compatibility study through DSC measurement may be utilized when measurement is not performed by polythermal and isothermal methods, or when slurry density of a solution is high, but has almost never been utilized in a ceramide study. In prediction of solubility of indomethacin (IMC) in polymers such as hydroxypropyl methylcellulose (HPMC) and polyvinylpyrrolidone (PVP), it was also confirmed that solubility prediction of a DSC method is excellent in a combination of IMC and HPMC. Since confirming compatibility between ceramides is a situation of confirming solubility when two solid-phase substances are mixed, a DSC experiment is determined to be very suitable, and thus the present inventors confirmed compatibility by measuring enthalpy of each ceramide, predicting enthalpy of a binary mixture, and actually measuring the same. For DSC measurement, a Thermal Analysis System (differential scanning calorimetry) such as Discovery DSC 250 of TA Instruments was used. In a DSC graph, melting enthalpy was measured by obtaining a peak area, and a unit of the peak area was J/g. A compatibility ratio was calculated by comparing a peak area measurement result of a sample in which ceramides are mixed and a calculated theoretical value (calculated sum area). A compatibility ratio is a ratio indicating compatibility when two components are mixed, and may be used to evaluate whether two components are stable even when mixed and may maintain desired characteristics.. […]
A single sample in which PC-104 and ceramide NP are unmixed (10:0 or 0:10), and samples in which PC-104 and ceramide NP are mixed at ratios such as 1:9 to 9.99:0.01, were each made, a DSC peak area was measured, and an actually measured DSC peak area and a calculated theoretical value according to a ratio of PC-104 and ceramide NP were compared. For compatibility evaluation, a ceramide mixing ratio having a low compatibility ratio was confirmed.

Assay in data set [2]: as above
Conditions: for Ratio: measured peak area / calculated theoretical value.

A short description of data set [3]: Solubility of ceramide or ceramide mixture in pure ethanol (94.5% or more). The text has this: Through Example 1, an effect of improvement of compatibility according to ceramide mixing confirmed through DSC measurement was confirmed. Accordingly, an effect of improvement of solubility was additionally confirmed. Specifically, solubility was confirmed as to how well the ceramide or the ceramide mixture dissolves in pure ethanol (94.5% or more).

[4] abbreviates: PC-104 and NPO at stated weight mixing ratio.
The mark [5] stands for this setting: PC-104 and NPS at stated weight mixing ratio.

On to `CCCCCCCC/C=C\CCCCCCCC(=O)N[C@@H](CO)[C@H](O)[C@H](O)CCCCCCCCCCCCCC` [NPO, CERAMIDE NP(oleic acid)], for which the “Peak area” value in data set [1] (setting [4]) worked out at 89.0 J/g. Also, in data set [1], the “Compatibility ratio 104+NPO” value was found to be 1.00, the “Enthalpy (J/g) NPO” value is listed as 89.0 J/g and the “Melting enthalpy” value is recorded as 89.0 J/g. Moreover, the Ratio in data set [2] (PC-104 and NPO) is reported as 1.00.

`CCCCCCCCCCCCCCCCCC(=O)NC(CO)C(O)C(O)CCCCCCCCCCCCCC` (centres unmarked) [NPS, CERAMIDE NP(stearic acid)]: in data set [1] (setting [5]), the “Peak area” value was 114.6 J/g. Besides, in data set [1], the “Compatibility ratio 104+NPS” value is reported as 1.00, the Ratio is 1.00, the “Enthalpy (J/g) NPS” value turned out to be 114.6 J/g and the “Melting enthalpy” value was 114.6 J/g.

For `CCCCCCCCCCCCCCCC(=O)N(CCO)CC(O)CN(CCO)C(=O)CCCCCCCCCCCCCCC` [PC-104, HYDROXYPROPYL BISPALMITAMIDE MEA], the “Peak area” value in data set [1] (setting [4]) amounted to 151.6 J/g. Besides, the “Peak area” value in data set [1] (setting [5]) is recorded as 151.6 J/g. Also, in data set [1], the “Compatibility ratio 104+NPO” value worked out at 1.00, the “Compatibility ratio 104+NPS” value worked out at 1.00, the Ratio is on record as 1.00 and the “Enthalpy (J/g) NPO” value worked out at 151.6 J/g. In data set [1], the “Enthalpy (J/g) NPS” value was found to be 151.6 J/g and the “Melting enthalpy” value is given as 151.6 J/g. The “EtOH solubility (mg/uL)” value in data set [3] is listed as “about 0.04636 mg/uL”. Also, in data set [2] (DSC, PC-104 and NPM at stated weight mixing ratio), the “Peak area” value amounted to 151.6 J/g. Besides, the “DSC enthalpy (J/g) of corresponding composition” value in data set [2] (PC-104 and NPM compositions of the solubility test) stood at 151.6 J/g. Also, the “Calculated sum area” value in data set [2] (calculated theoretical value from the two unmixed ceramides, PC-104 and NPM) is recorded as 151.6 J/g. Also, the “Compatibility ratio 104+NPM” value in data set [2] (from total melting enthalpy, by 104 Ratio) is given as 1.00. The Ratio in data set [2] (PC-104 and NPM) was 1.00. The Ratio in data set [2] (PC-104 and NPO) was 1.00. The “Enthalpy (J/g) NPM” value in data set [2] (total melting enthalpy of mixed ceramides, 104 with NPM, by 104 Ratio) is listed as 151.6 J/g.

(Values after patent publication EP4772164A1, “CERAMIDE MIXTURE FOR IMPROVING COMPATIBILITY” (Amorepacific Corporation, priority 2023, dated 2025).)
